In US20140271734A1, “BILE ACID RECYCLING INHIBITORS FOR TREATMENT OF BARRETT'S ESOPHAGUS AND GASTROESOPHAGEAL REFLUX DISEASE” (LUMENA PHARMACEUTICALS, INC., priority 2013, published 2014):
Read-outs that look alike come from different tables or passages of the source.

Columns and labels:
[1] = Systemic exposure of LUM001 in patients under 18 years (study NB-00-02-014); format: in vivo, human; conditions: for Average serum drug exposure: day eight
Protocol: LUM001 has been administered to forty patients under the age of 18 years old. […] The drug was administered once-a-day (QD) in the morning for fourteen days. […] These doses are similar to those using to treat patients with Barrett's esophagus or GERD.

[2] = Pharmacokinetics of LUM001 after oral solution and capsule in dogs; format: in vivo, Beagle dogs; conditions: for Cmax / Tmax / AUC(0-t) / bioavailability: female, Beagle, dog, plasma; for Cmax / Tmax / AUC(0-t): po, 7.5 mg/kg; for AUC(0-t): read-out: AUC(0-24 h); for bioavailability: read-out: BA (bioavailability)
Protocol: Three fasted female Beagle dogs were administered LUM001 either as an oral solution at doses of 1 or 7.5 mg LUM001 free form/kg or in an oral capsule at a dose of 7.5 mg LUM001 free form/kg in a cross-over design. A dose of 7.5 mg LUM001 free form/kg was also administered as an oral solution to fed beagle dogs to evaluate the effect of food on plasma concentrations of LUM001.
Blood samples of approximately 3 mL was collected by venipuncture or indwelling catheter into chilled tubes containing heparin at the following timepoints: 0 (predose), 0.5, 1, 1.5, 2, 3, 5, 6, 8, 10, and 24 hours. The plasma samples were prepared by centrifugation of blood within 30 minutes after sample collection. All samples were stored at −20° C.±5° C. until analysis to study the relative exposures of LUM001 free form after capsule or oral solution dosing.

[3] = test system: fecal total bile acid (FBA); assay: Fecal bile acids in monkeys, LUM001 for 14 days; format: in vivo, rhesus monkeys; conditions: n=5
Text: Fifteen experimentally naive male rhesus monkeys were utilized in this study. These animals were 2.1 to 4.2 years of age and weighed between 2.8 to 4.3 kg on the day prior to treatment initiation. HARLAN TEKLAD PRIMATE DIET® (Certified) was provided daily in amounts appropriate for the size and age of the animals. The diet was supplemented with fruit or vegetables 2-3 times weekly. Small bits of fruit, cereal or other treats were given to the animals following dose administration and periodically as part of facility's environmental enrichment program. Beginning prior to treatment initiation, only non-fat treats were provided to the animals (e.g., standard primate treats including peanut butter, sunflower seeds, baby food, nuts, pudding, and worms were specifically not permitted). Tap water was available ad libitum via an automatic watering device. Each animal was administered a dose of the LUM001 contained within gelatin capsules or the control article (empty gelatin capsules) once daily for 14 consecutive days. Fecal samples for determination of bile acid content were collected over approximately 24-hour periods beginning three days prior to treatment initiation and continuing until scheduled termination of dosing on Day 15. Samples were stored at −70 C until analysis.
Fecal samples were collected to determine the fecal total bile acid (FBA) concentration for each animal. Fecal collections were made during the final 72 hours of the study, for three consecutive 24-hour periods between 9:00 am and 10:00 am each day, prior to dosing and feeding. The separate daily collections from each dog were weighed, combined and homogenized with distilled water in a food processor to generate a homogeneous slurry. Homogenate (1.4 g) was extracted in a final concentration ratio of 2:0.6 of 50% (v/v) tertiary butanol/distilled water for 45 minutes in a 37° C. water bath and subjected to centrifugation for 13 minutes at 2000×g. The concentration of bile acids (mmolesgram homogenate) was determined using a 96-well enzymatic assay system. Aliquots of the fecal extracts (20 μl) were added to two sets of triplicate wells in a 96 well assay plate. A standardized sodium taurocholate solution and a standardized fecal extract solution (previously made from pooled samples and characterized for its bile acid concentration) were also analyzed for assay quality control. Aliquots of sodium taurocholate (20 μl), were serially diluted to generate a standard curve containing 30-540 nmoles/well. A 230 μl aliquot of reaction mixture containing 1M hydrazine hydrate, 0.1 M pyrophosphate and 0.46 mg/ml NAD was added to each well. […] Following 60 minutes of incubation at room temperature, the optical density at 340 nm was measured and the mean of each set of triplicate samples was calculated. […]

[4] = Body weight of hamsters, LUM001 for 28 days; format: in vivo, golden Syrian hamsters; conditions: n=10
Protocol: Male golden Syrian hamsters (126-147 gm) were obtained from Charles Rivers Laboratories and were single housed in a constant temperature environment with alternating 12-hour light and dark cycles. Hamsters were fed Teklad 7001 rodent meal chow at libitum for two weeks before the experimental studies began and switched to Teklad 7001 rodent meal chow supplemented with 0.24% cholesterol on day one of the 28-day experiment. LUM001 was dissolved in an aqueous solution of 0.2% (w/v) Tween 80 and administered Q.D. by intragastric gavage between 9 a.m. and 10 a.m. each morning using a syringe fitted with a flexible feeding tube. Blood samples were collected after 14- and 28-day treatment periods by orbital sinus and cardiac puncture, respectively. Hamsters were anesthetized but not fasted prior to blood collections. Fecal samples were collected during a 48-hour period at the end of days 14 and 28 (i.e., days 13-14 and 27-28, respectively).

Hemoglobin A1c (HbA1c) = assay: Baseline-corrected percent HbA1c in ZDF rats; format: in vivo; conditions: twice daily oral gavage
[5] = oral capsule 7.5 mg/kg free form, fasted
[6] = oral solution 7.5 mg/kg free form, fed

SMILES: CCCCC1(CCCC)CS(=O)(=O)c2ccc(N(C)C)cc2[C@@H](c2ccc(OCc3ccc(C[N+]45CCN(CC4)CC5)cc3)cc2)[C@H]1O [LUM001]
- Average serum drug exposure ([1]; Subject 0304, 1.0 mg QD (24.3 μg/kg)): 0.0 ng/mL
- Average serum drug exposure ([1]; Subject 0308, 1.0 mg QD (28.9 μg/kg)): 0.0 ng/mL
- Average serum drug exposure ([1]; Subject 0309, 1.0 mg QD (35.0 μg/kg)): 0.0 ng/mL
- Average serum drug exposure ([1]; Subject 0410, 2.5 mg QD (42.0 μg/kg)): 0.0 ng/mL
- Average serum drug exposure ([1]; Subject 0510, 5.0 mg QD (168.4 μg/kg)): 0.0 ng/mL
- Systemic exposure of LUM001 ([1]; patients under 18 years, QD, measured on day eight): confirmed to be minimally absorbed
- Cmax [2, 5]: 4.24 ng/mL
- Tmax [2, 5]: 5 h
- AUC(0-t) [2, 5]: 33.7 ng·h/mL
- Cmax [2, 6]: 1.28 ng/mL
- Tmax [2, 6]: 0.5 h
- AUC(0-t) [2, 6]: 3.9 ng·h/mL
- bioavailability [2, 5]: < 0.1%
- bioavailability ([2]; oral solution 1 mg/kg free form, fasted): < 0.1%
- BA (bioavailability) ([2]; oral solution 7.5 mg/kg free form, fasted): <0.1%
- BA (bioavailability) [2, 6]: <0.1%
- Fecal Total Bile Acids ([3]; 5 mg/kg once daily 14 days, Day 15): 23 µmol/day/kg
- Fecal Total Bile Acids ([3]; 5 mg/kg once daily, Prestudy): 6 µmol/day/kg
- Fecal Total Bile Acids ([3]; 50 mg/kg once daily 14 days, Day 15): 63 µmol/day/kg
- Fecal Total Bile Acids ([3]; 50 mg/kg once daily, Prestudy): 6 µmol/day/kg
- Body Weight (BW) ([4]; 5 mg/kg/day): 130 g
- Body Weight (BW) ([4]; 15 mg/kg/day): 136 g
- Body Weight (BW) ([4]; 50 mg/kg/day): 130 g

SMILES: CCCC[C@]1(CC)CS(=O)(=O)c2ccc(N(C)C)cc2[C@@H](c2cccc(NC(=O)N[C@@H]3O[C@H](COS(=O)(=O)[O-])[C@@H](O)[C@H](OCc4ccccc4)[C@H]3O)c2)[C@H]1O.CCO.O.[K+] [LUM002, potassium((2R,3R,4S,5R,6R)-4-benzyloxy-6-{3-[3-((3S,4R,5R)-3-butyl-7-dimethylamino-3-ethyl-4-hydroxy-1,1-dioxo-2,3,4,5-tetrahydro-1H-benzo[b]thiepin-5-yl)-phenyl]-ureido}-3,5-dihydroxy-tetrahydro-pyran-2-ylmethyl)sulphate ethanolate, hydrate]
- Baseline-corrected percent HbA1c (Hemoglobin A1c (HbA1c)): significant dose-dependent reductions
